Measured values reported in patent US20230384334A1, “METHOD FOR CALCULATING DRINKING TIME” (Shanxi Medical University, priority 2022, published 2023).
Where two headings read alike, the source gives them in different places.

Conditions: in vivo
Description: Approved by the Medical Ethics Committee of Shanxi Medical University (2018LL349), a total of 26 adults including 14 men and 12 women are recruited by the team to participate in the study.
All the blood samples were stored at −20 DEG C. until the end of the analysis.
1 mL of blood and 1 mL of tert-butanol (IS, 87 mg/mL) were added to a headspace vial, diluted with 3 mL of ultrapure water, mixed in a sealed condition, and then analyzed by the headspace gas chromatography.
Metabolites EtG and EtS in blood samples were measured by liquid chromatography-tandem quadrupole mass spectrometry (LC-MS/MS) with EtG-D5 and EtS-D5 as internal standards. […] Then 800 μL of 80% acetonitrile in methanol was added, and the mixture is precipitated at 0 DEG C. for 10min. After that, centrifugation was performed at 13000 rpm for 5 min, supernatant was taken out, and dried, by blowing, with nitrogen at 35 DEG C., and then re-dissolved with 400 μL of 5% acetonitrile in water and centrifuged again at 13000 rpm for 5 min.
Chromatograph separation was performed via an LC-20 A system. Conditions of the chromatograph were as follows:
chromatographic column: Inertsil ODS-3 column (2.1 mm×100 mm, 3 μm; Shimadzu, Japan) , and column temperature: 35 DEG C.
Targeted substances were tested by a tandom mass spectrometer (TRAP4,000, Sciex, AB). The specific conditions were as follows:
Ion source: electron spray ionization (ESI); voltage of ion spray: −4000 V, and temperature: 500 DEG C.; curtain gas, nebulizer (Gas 1), and heating auxiliary gas (Gas 2): 40 psi, 50 psi, and 35 psi respectively.
Scanning mode: anions+multiple reaction monitoring (MRM).
The pharmacokinetic parameters were calculated by a non-compartmental model using a DAS 3.0 software. All data was summarized using descriptive statistics. […] All statistical analyses were performed using version 13.0 of an IBM SPSS® software (SPSS Inc., Chicago, IL, USA).

Row | Structure (SMILES) | Cmax, peak concentration (human, 0.72 g/kg) | AUC (0-t), area under the curve (human, po) | Cmax, peak concentration (human, po) | t1/2z, half-life period (human, po) | LOD (h) in human blood (po) | Tmax, time to peak (human, po) | Clz/F, clearance rate (human, po) | Vz/F, apparent volume of distribution (human, po) | Detection window time (maximum observed value) in blood (po)
1 | CCOS(=O)(=O)O [EtS, Ethyl sulphate] | 170 ng/mL | 1040 ± 340 ng·h/mL | 170 ± 40 ng/mL | 2.04 ± 0.76 h | 16.92 ± 6.23 h |  |  |  | 
2 | CCO[C@@H]1O[C@H](C(=O)O)[C@@H](O)[C@H](O)[C@H]1O [EtG, Ethyl glucuronide] |  | 1990 ± 780 ng·h/mL | 310 ± 110 ng/mL | 2.56 ± 0.89 h | 22.15 ± 4.42 h | 4.12 ± 1.07 h |  |  | 
3 | CCO [alcohol, Alcohol] |  | 1,715.23 ± 626.72 mg/L* |  |  | 5.81 ± 1.74 h | 2.02 ± 0.54 h | 0.49 ± 0.33 L/h | 0.69 ± 0.49 L/kg | 3 to 8 h
